Source: patent publication US12186303B2, “Feed additive for cattle comprising n-acetyl-l-tryptophan as active ingredient” (CJ CHEILJEDANG CORPORATION, priority 2018, dated 2025)

Legend:
Korean native steers [1] = assay: Hematological analysis (VetScan HM2) under cold stress conditions; type: in vivo, Korean native cattle; set-up: MON / GRA / RBC / HGB / HCT / MCH / WBC / LYM: unit not given here; details: for GRA / HCT / HGB / LYM / MCH / MON / PLT / RBC / WBC: 0.1% NALT
From the text: After grouping the animals by statistical analysis of initial body weights, the animals were bred in 1.0×1.5 m^2 individual pens during the experiment period. The feed was offered based on an amount of dry matter of daily total mixed ration (TMR) per head. After 7 days of an adaptation period for N-acetyl-L-tryptophan (NALT), a mixture of 0.1% N-acetyl-L-tryptophan (NALT) and the total mixed ration was fed to individual animals every morning at 8 a.m. for 6 weeks, and water was available ad libitum. Total amounts of L-tryptophan ingested by the control and NALT-treated group by feeding NALT were 7.37 g/day/head and 16.26 g/day/head, respectively. The experiment was performed such that the NALT-treated group ingested 8.89 g/day/head more L-tryptophan than that of the control.
(§1) Meanwhile, results of growth performance analysis (body weight and average feed intake) and genetic analysis of loin tissue were obtained by statistically comparing and analyzing significant differences between the control and the NALT-treated group, and results of hematological analysis were obtained via statistical comparison and analysis depending on NALT treatment, experiment period (days), and interaction (treatment×days). These numerical values were expressed as average values, and a significance test was performed at the 5% level using Student's t-test by using the JMP 5.0 software package (SAS Institute Inc., Cary, NC, USA).
Blood was collected from a jugular vein of each sentinel animal before offering the feed at the starting day of the experiment (week 0), the mid-point of the experiment (week 4), and the final day of the experiment (week 7) and added to a vacutainer (Becton Dickinson, Franklin Lakes, NJ, USA). Hematological analysis was conducted using a VetScan HM2 Hematology System (Abaxis, Union City, CA, USA).

Korean native steers [2] = assay: Complete blood cell count (CBC) under heat stress conditions; type: in vivo, Korean native cattle; details: for GRA (0-2.4) / HCT (23-33) / HGB (8.0-15.0) / LYM (2.5-7.5) / MCH (14-18) / MCHC (30-36) / MCV (40-60) / MON (0-0.84) / MPV (4.5-7.6) / PCT (0.15-0.40) / PDW (56-80) / PLT (100-800) / RBC (5.0-10.0) / RDW (16-20) / WBC (4.0-12.0): 0.1% NALT
From the text: After grouping the animals by statistical analysis of initial body weights, the animals were bred in 1.0×1.5 m^2 individual pens during the experiment period. The feed was offered based on an amount of dry matter of daily total mixed ration (TMR) per head. After 7 days of an adaptation period for N-acetyl-L-tryptophan (NALT), a mixture of 0.1% N-acetyl-L-tryptophan (NALT) and the total mixed ration was fed to individual animals every morning at 8 a.m. for 6 weeks, and water was available ad libitum. Total amounts of L-tryptophan ingested by the control and the experimental group (NALT-treated group) by feeding NALT were 6.0 g/day/head and 18.2 g/day/head, respectively. The experiment was performed such that the NALT-treated group ingested 12.2 g/day/head more L-tryptophan than the control.
as §1, with “using a” for “using the”
Blood samples were collected from a jugular vein of each sentinel animal before offering the feed at the starting day of the experiment (week 0), the mid-point of the experiment (week 5), and the final day of the experiment (week 10) and stored in a vacutainer (Becton Dickinson, Franklin Lakes, NJ, USA). Complete blood cell count (CBC) was performed using whole blood using a VetScan HM2 (Abaxis, Union City, CA, USA), and hematological properties were identified using serum with a biochemical autoanalyzer (FUJI DRI-CHEM 7000, Fujifilm, Tokyo, Japan). In addition, total protein (TP), albumin (ALB), creatinine phosphokinase (CPK), and blood urea nitrogen (BUN), which are related to blood protein metabolism, were analyzed; triglycerides (TG) and non-esterified fatty acid (NEFA), which are related to energy metabolism, were analyzed; and sodium (Na), chlorine (CI), and potassium (K), which are blood electrolytes, were analyzed.

## CC(=O)N[C@@H](Cc1c[nH]c2ccccc12)C(=O)O [NALT, N-acetyl-L-tryptophan]
Korean native steers [1]
  All hematological indicators except for monocytes, compared with the control: No statistically significant difference
  Hematological indicator values relative to normal ranges: within normal ranges
Korean native steers [1]; 0 wks
  GRA: 3.01
  HCT: 35.00
  HGB: 13.60
  LYM: 5.55
  MCH: 12.83
  MON: 0.10
  PLT: 378.0
  RBC: 10.70
  WBC: 8.66
Korean native steers [1]; 4 wks
  GRA: 2.09
  HCT: 34.64
  HGB: 14.20
  LYM: 6.55
  MCH: 13.80
  MON: 0.06
  PLT: 476.8
  RBC: 10.34
  WBC: 8.70
Korean native steers [1]; 7 wks
  GRA: 3.29
  HCT: 33.88
  HGB: 13.68
  LYM: 5.98
  MCH: 13.70
  MON: 0.08
  PLT: 379.5
  RBC: 10.08
  WBC: 9.34
Korean native steers [2]
  All CBC test indicators, effect of treatment with 0.1% NALT: No statistically significant difference
  Values of hematological indicators (CBC) relative to normal ranges: within normal ranges
Korean native steers [2]; Day 0
  GRA (0-2.4): 3.16 10^3/μL
  HCT (23-33): 6.95%
  HGB (8.0-15.0): 13.4 g/dL
  LYM (2.5-7.5): 6.08 10^3/μL
  MCH (14-18): 14.8 pg
  MCHC (30-36): 38.3 g/dL
  MCV (40-60): 38.8 fL
  MON (0-0.84): 0.22 10^3/μL
  MPV (4.5-7.6): 6.95 fL
  PCT (0.15-0.40): 0.24%
  PDW (56-80): 34.1%
  PLT (100-800): 332 10^3/μL
  RBC (5.0-10.0): 9.13 10^6/μL
  RDW (16-20): 23.6%
  WBC (4.0-12.0): 9.60 10^3/μL
Korean native steers [2]; Day 35
  GRA (0-2.4): 3.61 10^3/μL
  HCT (23-33): 6.58%
  HGB (8.0-15.0): 11.7 g/dL
  LYM (2.5-7.5): 5.67 10^3/μL
  MCH (14-18): 14.7 pg
  MCHC (30-36): 37.1 g/dL
  MCV (40-60): 40.0 fL
  MON (0-0.84): 0.46 10^3/μL
  MPV (4.5-7.6): 6.58 fL
  PCT (0.15-0.40): 0.24%
  PDW (56-80): 31.5%
  PLT (100-800): 371 10^3/μL
  RBC (5.0-10.0): 8.04 10^6/μL
  RDW (16-20): 22.7%
  WBC (4.0-12.0): 9.74 10^3/μL
Korean native steers [2]; Day 70
  GRA (0-2.4): 3.66 10^3/μL
  HCT (23-33): 9.80%
  HGB (8.0-15.0): 13.8 g/dL
  LYM (2.5-7.5): 4.91 10^3/μL
  MCH (14-18): 15.7 pg
  MCHC (30-36): 37.1 g/dL
  MCV (40-60): 42.5 fL
  MON (0-0.84): 0.81 10^3/μL
  MPV (4.5-7.6): 9.80 fL
  PCT (0.15-0.40): 0.24%
  PDW (56-80): 29.5%
  PLT (100-800): 196 10^3/μL
  RBC (5.0-10.0): 8.83 10^6/μL
  RDW (16-20): 23.6%
  WBC (4.0-12.0): 9.38 10^3/μL
